Data: patent US20240002395A1, “COMPOUNDS AND THEIR USE FOR TREATING NEUROPATHIC PAIN” (The Johns Hopkins University, priority 2020, published 2024)

Experiments:
human MrgprX1 = biological target: T1, human MrgprX1 (Homo sapiens, UniProt Q96LB2); test: MrgprX1 positive allosteric modulator (PAM) calcium FLIPR assay in HEK293 cells; type: cell-based; conditions: PAM activity in presence of EC20 concentration of BAM8-22; HEK293 cells stably transfected with human MrgprX1
T1 construct: expressed in transfected cells
Protocol: HEK293 cells stably transfected with human MrgprX1 were plated onto poly-D-lysine-coated, black-walled, 96-well plates at a seeding density of 12,000 cells/well and grown for two days. On the day of the experiment, cells were incubated with Fluo-4 AM 2 μM, pluronic acid 0.04% and Trypan Red 1% in HBSS (pH 7.4, 100 μL) for 1 h at 37° C. For each different passage of cells, a BAM8-22 dose response was first conducted and the BAM8-22 EC20 determined. Test compounds were then dissolved and serially diluted in DMSO, further diluted with Trypan Red (1%)-containing HBSS (50 μL) and added to cells (0.33% DMSO concentration by volume) to first monitor for agonist activity. After 2.5 min, BAM8-22 at 4-fold EC20 (50 μL) was added to cells (0.25% DMSO concentration by volume) and the cells imaged on the FLIPR for an additional 2 minutes to monitor the test compounds for PAM activity. Finally, data were normalized to fluorescence signals obtained from 250 nM of BAM8-22 (maximum) and BAM8-22 at its EC20 concentration (minimum). EC50 of a test compound was defined as the concentration required to provoke a response halfway between the minimum and maximum response in the presence of EC20 concentration of BAM8-22.

[1] = Metabolic stability in mouse liver microsomes; type: in vitro ADME; conditions: mouse liver microsomes 0.5 mg/mL, NADPH, compound 5 μM, 60 min
Protocol: (§1) The metabolic stability was evaluated using mouse liver microsomes. For the cytochrome P450 (CYP)-mediated metabolism, the reaction was carried out with 100 mM potassium phosphate buffer, pH 7.4, in the presence of NADPH regenerating system (1.3 mM NADPH, 3.3 mM glucose 6-phosphate, 3.3 mM MgCl2, 0.4 U/mL glucose-6-phosphate dehydrogenase, 50 μM sodium citrate). Reactions, in triplicate, were initiated by addition of the liver microsomes to the incubation mixture (compound final concentration was 5 μM; 0.5 mg/mL microsomes). After 60 min of incubation, aliquots of the mixture were removed and the reaction quenched by addition of three times the volume of ice-cold acetonitrile spiked with the internal standard. Compound disappearance was monitored over time using a liquid chromatography and tandem mass spectrometry (LC/MS/MS) method.

[2] = Metabolic stability in human liver microsomes; type: in vitro ADME
Protocol: [The procedure below names another species; the source lists this species under the same test.] as §1

T1 sequence (Q96LB2 whole entry): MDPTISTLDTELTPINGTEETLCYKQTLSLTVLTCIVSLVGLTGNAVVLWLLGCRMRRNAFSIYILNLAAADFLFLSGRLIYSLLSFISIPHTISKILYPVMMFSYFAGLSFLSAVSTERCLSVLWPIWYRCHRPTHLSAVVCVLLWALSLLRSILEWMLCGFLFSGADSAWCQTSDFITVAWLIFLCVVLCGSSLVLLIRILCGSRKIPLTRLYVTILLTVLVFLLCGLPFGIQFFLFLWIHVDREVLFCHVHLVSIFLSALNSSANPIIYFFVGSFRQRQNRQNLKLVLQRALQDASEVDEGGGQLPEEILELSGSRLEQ

EC50 (human MrgprX1)	% remaining after 1-h incubation, Mouse [1]	melting point	% remaining after 1-h incubation, Human [2]	Structure (SMILES)
20 nM	>95%	150 °C	>95%	CC(C)(C)c1sc2ncnc(Oc3c(F)cccc3OC(F)(F)F)c2c1-c1ccc(F)c(F)c1 [Compound 7al, 6-tert-butyl-5-(3,4-difluorophenyl)-4-(2-fluoro-6-(trifluoromethoxy)phenoxy)thieno[2,3-d]pyrimidine]
10 nM	>95%		>95%	CC(C)(C)c1sc2ncnc(Oc3c(F)cccc3OC(F)(F)F)c2c1-c1ccc(Cl)cc1 [Compound 7ao, 6-tert-butyl-5-(4-chlorophenyl)-4-(2-fluoro-6-(trifluoromethoxy)phenoxy)thieno[2,3-d]pyrimidine]
500 nM	<5%	107 °C		Cc1ccccc1Oc1ncnc2sc(C)c(C)c12 [Compound 7az, 5,6-dimethyl-4-(o-tolyloxy)thieno[2,3-d]pyrimidine]
50 nM	74%	134 to 137 °C	>95%	CC(C)(C)c1sc2ncnc(Oc3c(F)cccc3OC(F)(F)F)c2c1-c1ccc(Cl)c(Cl)c1 [Compound 7b, 6-tert-butyl-5-(3,4-dichlorophenyl)-4-(2-fluoro-6-(trifluoromethoxy)phenoxy)thieno[2,3-d]pyrimidine]
200 nM	<5%	144 °C	<5%	Cc1sc2ncnc(Oc3ccccc3F)c2c1C [Compound 7ba, 4-(2-fluorophenoxy)-5,6-dimethylthieno[2,3-d]pyrimidine]
400 nM	<5%		61%	CC(C)(C)c1cc2c(Oc3ccccc3F)ncnc2s1 [Compound 7bc, 6-(tert-butyl)-4-(2-fluorophenoxy)thieno[2,3-d]pyrimidine]
40 nM		173 °C		CC(C)(C)c1sc2ncnc(Oc3c(F)cccc3F)c2c1N1CCOCC1 [Compound 7bi, 4-(6-(tert-butyl)-4-(2,6-difluorophenoxy)thieno[2,3-d]pyrimidin-5-yl)morpholine]
70 nM		72 °C		CCN(CC)c1c(C(C)(C)C)sc2ncnc(Oc3c(F)cccc3OC(F)(F)F)c12 [Compound 7bj, 6-(tert-butyl)-N,N-diethyl-4-(2-fluoro-6-(trifluoromethoxy)phenoxy)thieno[2,3-d]pyrimidin-5-amine]
100 nM		159 to 161 °C		CC(C)(C)c1oc2ncnc(Oc3c(F)cccc3OC(F)(F)F)c2c1C(=O)N1CCCCC1 [Compound 7bk, (6-(tert-butyl)-4-(2-fluoro-6-(trifluoromethoxy)phenoxy)furo[2,3-d]pyrimidin-5-yl)(piperidin-1-yl)methanone]
300 nM		66 °C		CC(C)(C)c1sc2ncnc(Oc3c(Cl)cccc3OC(F)(F)F)c2c1-c1ccc(Cl)c(Cl)c1 [Compound 7c, 6-tert-butyl-4-(2-chloro-6-(trifluoromethoxy)phenoxy)-5-(3,4-dichlorophenyl)thieno[2,3-d]pyrimidine]
> 10000 nM		121 °C		CC(C)(C)c1sc2ncnc(Oc3cccc(OC(F)(F)F)c3)c2c1-c1ccc(Cl)c(Cl)c1 [Compound 7d, 6-tert-butyl-5-(3,4-dichlorophenyl)-4-(3-(trifluoromethoxy)phenoxy)thieno[2,3-d]pyrimidine]
> 100000 nM		103 °C		CC(C)(C)c1sc2ncnc(Oc3ccc(OC(F)(F)F)cc3)c2c1-c1ccc(Cl)c(Cl)c1 [Compound 7e, 6-tert-butyl-5-(3,4-dichlorophenyl)-4-(4-(trifluoromethoxy)phenoxy)thieno[2,3-d]pyrimidine]
1000 nM		164 °C		CC(C)(C)c1sc2ncnc(Oc3cccnc3F)c2c1-c1ccc(Cl)c(Cl)c1 [Compound 7g, 6-tert-butyl-5-(3,4-dichlorophenyl)-4-(2-fluoropyridin-3-yloxy)thieno[2,3-d]pyrimidine]
4000 nM		117 °C		CC(C)(C)c1sc2ncnc(Oc3cccnc3OC(F)(F)F)c2c1-c1ccc(Cl)c(Cl)c1 [Compound 7h, 6-tert-butyl-5-(3,4-dichlorophenyl)-4-(2-(trifluoromethoxy)pyridin-3-yloxy)thieno[2,3-d]pyrimidine]
30000 nM		207 °C		CC(C)(C)c1sc2ncnc(Oc3cccnc3N)c2c1-c1ccc(Cl)c(Cl)c1 [Compound 7j, 3-(6-tert-butyl-5-(3,4-dichlorophenyl)thieno[2,3-d]pyrimidin-4-yloxy)pyridin-2-amine]
> 100000 nM		186 °C		CC(C)(C)c1sc2ncnc(Oc3ccnnc3)c2c1-c1ccc(Cl)c(Cl)c1 [Compound 7k, 6-tert-butyl-5-(3,4-dichlorophenyl)-4-(pyridazin-4-yloxy)thieno[2,3-d]pyrimidine]
600 nM		148 °C		CC(C)(C)c1sc2ncnc(Oc3ccccc3)c2c1-c1ccc(Cl)c(Cl)c1 [Compound 7l, 6-tert-butyl-5-(3,4-dichlorophenyl)-4-phenoxythieno[2,3-d]pyrimidine]
100 nM		163 °C		CC(C)(C)c1sc2ncnc(Oc3ccccc3F)c2c1-c1ccc(Cl)c(Cl)c1 [Compound 7m, 6-tert-butyl-5-(3,4-dichlorophenyl)-4-(2-fluorophenoxy)thieno[2,3-d]pyrimidine]
> 100000 nM		144 °C		CC(C)(C)c1sc2ncnc(Oc3cccc(F)c3)c2c1-c1ccc(Cl)c(Cl)c1 [Compound 7o, 6-tert-butyl-5-(3,4-dichlorophenyl)-4-(3-fluorophenoxy)thieno[2,3-d]pyrimidine]
2000 nM		179 °C		CC(C)(C)c1sc2ncnc(Oc3ccc(F)cc3)c2c1-c1ccc(Cl)c(Cl)c1 [Compound 7p, 6-tert-butyl-5-(3,4-dichlorophenyl)-4-(4-fluorophenoxy)thieno[2,3-d]pyrimidine]
700 nM		136 °C		COc1ccccc1Oc1ncnc2sc(C(C)(C)C)c(-c3ccc(Cl)c(Cl)c3)c12 [Compound 7q, 6-tert-butyl-5-(3,4-dichlorophenyl)-4-(2-methoxyphenoxy)thieno[2,3-d]pyrimidine]
1000 nM		119 °C		CCOc1ccccc1Oc1ncnc2sc(C(C)(C)C)c(-c3ccc(Cl)c(Cl)c3)c12 [Compound 7r, 6-tert-butyl-5-(3,4-dichlorophenyl)-4-(2-ethoxyphenoxy)thieno[2,3-d]pyrimidine]
1000 nM		136 °C		CC(C)(C)c1sc2ncnc(Oc3ccccc3OCC(F)(F)F)c2c1-c1ccc(Cl)c(Cl)c1 [Compound 7s, 6-tert-butyl-5-(3,4-dichlorophenyl)-4-(2-(2,2,2-trifluoroethoxy)phenoxy)thieno[2,3-d]pyrimidine]
400 nM		151 °C		Cc1ccccc1Oc1ncnc2sc(C(C)(C)C)c(-c3ccc(Cl)c(Cl)c3)c12 [Compound 7t, 6-tert-butyl-5-(3,4-dichlorophenyl)-4-(o-tolyloxy)thieno[2,3-d]pyrimidine]
3000 nM		60 °C		CC(=O)c1ccccc1Oc1ncnc2sc(C(C)(C)C)c(-c3ccc(Cl)c(Cl)c3)c12 [Compound 7u, 1-(2-(6-tert-butyl-5-(3,4-dichlorophenyl)thieno[2,3-d]pyrimidin-4-yloxy)phenyl)ethanone]
> 10000 nM		165 °C		CC(C)Oc1ncnc2sc(C(C)(C)C)c(-c3ccc(Cl)c(Cl)c3)c12 [Compound 7w, 6-tert-butyl-5-(3,4-dichlorophenyl)-4-isopropoxythieno[2,3-d]pyrimidine]
> 10000 nM		172 °C		CC(C)(C)c1sc2ncnc(OC3CC3)c2c1-c1ccc(Cl)c(Cl)c1 [Compound 7x, 6-tert-butyl-4-cyclopropoxy-5-(3,4-dichlorophenyl)thieno[2,3-d]pyrimidine]
6000 nM		112 °C		CC(C)(C)c1sc2ncnc(OC3CCCC3)c2c1-c1ccc(Cl)c(Cl)c1 [Compound 7z, 6-tert-butyl-4-(cyclopentyloxy)-5-(3,4-dichlorophenyl)thieno[2,3-d]pyrimidine]

Structure (SMILES)	EC50 (human MrgprX1)	% remaining after 1-h incubation, Mouse [1]	melting point	% remaining after 1-h incubation, Human [2]
CC(C)(C)c1sc2ncnc(OC3CCC3)c2c1-c1ccc(Cl)c(Cl)c1 [Compound 7y, 6-tert-butyl-4-cyclobutoxy-5-(3,4-dichlorophenyl)thieno[2,3-d]pyrimidine]	7000 nM		146 °C	
